Results on 14 compounds are retold here after patent US20250213735A1, “NEUROPEPTIDE Y1 RECEPTOR (NPY1R) TARGETED THERAPEUTICS AND USES THEREOF” (Radionetics Oncology, Inc., priority 2023, published 2025).

Structures are written as SMILES. Numbered stars: 1 amine (or outer) side, 2 acyl side, 3 side chain; on linkers, the order of the positions; unused ones are H or OH. Square brackets hold non-standard residues; d marks the D form. Peptide text beside a SMILES is read from it. * marks the point of attachment. dArg(Nω-CONH(CH2)2NHCOEt) = CCC(=O)NCCNC(=O)/N=C(/N)NCCC[C@@H](N)C(=O)O; DOTA = O=C(O)CN1CCN(CC(=O)O)CCN(CC(=O)*)CCN(CC(=O)O)CC1; X2 = O=C([C@H](c1cccc(NCCCN[*:1])c1)N1Cc2ccccc2C1)[*:2]; NH(4-OH-benzyl) = Oc1ccc(CN*)cc1; Sar = CNCC(=O)O

The Ki is the equilibrium dissociation constant of an inhibitor or competing ligand from its target.

The target of the assay is hNPY1R (Homo sapiens (Human), UniProt P25929). The assay can be described thus: NPY1R binding assay (SK-N-MC membrane, [125I]-Peptide YY competition).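 Note: bound radioligand separated by filtration over GF/C filter plates and counted, Ki obtained by non-linear regression.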 Particulars: crude SK-N-MC membranes endogenously expressing NPY1R; [125I]-Peptide YY (human) 0.05 nM; 120 min at room temperature; read-out: hNPY1R binding Ki.
hNPY1R, sequence (P25929 whole entry): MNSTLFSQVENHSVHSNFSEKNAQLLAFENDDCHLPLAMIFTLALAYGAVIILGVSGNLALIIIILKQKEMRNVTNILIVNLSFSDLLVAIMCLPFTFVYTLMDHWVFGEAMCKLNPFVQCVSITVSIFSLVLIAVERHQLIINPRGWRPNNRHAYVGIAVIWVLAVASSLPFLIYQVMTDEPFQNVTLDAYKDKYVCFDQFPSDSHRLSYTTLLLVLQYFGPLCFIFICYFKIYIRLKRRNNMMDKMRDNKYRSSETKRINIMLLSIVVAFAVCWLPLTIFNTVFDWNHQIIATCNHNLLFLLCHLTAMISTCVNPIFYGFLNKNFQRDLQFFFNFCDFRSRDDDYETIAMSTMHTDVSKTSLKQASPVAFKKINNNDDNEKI
Consider `CCC(=O)NCCNC(=O)/N=C(/N)NCCC[C@@H](NC(=O)[C@H](c1ccc(OCCCNC(=O)CCC(=O)NCCNC(=O)CN2CCN(CC(=O)O)CCN(CC(=O)O)CCN(CC(=O)O)CC2)cc1)N1Cc2ccccc2C1)C(=O)NCc1c(F)cc(O)cc1F` [compound 7, 2,2′,2″-(10-(2-((2-(4-((3-(4-((1S,4R,Z)-9-amino-4-((2,6-difluoro-4-hydroxybenzyl)carbamoyl)-1-(isoindolin-2-yl)-2,11,16-trioxo-3,8,10,12,15-pentaazaoctadec-9-en-1-yl)phenoxy)propyl)amino)-4-oxobutanamido)ethyl)amino)-2-oxoethyl)-1,4,7,10-tetraazacyclododecane-1,4,7-triyl)triacetic acid-2,2,2-trifluoroacetic acid (1/1)], for which the Ki is under 10 nM. Next, `CCC(=O)NCCNC(=O)/N=C(/N)NCCC[C@@H](NC(=O)[C@H](c1ccccc1)N1Cc2cccc(NC(=O)CCCNC(=O)CCCCCNC(=O)CN3CCN(CC(=O)O)CCN(CC(=O)O)CCN(CC(=O)O)CC3)c2C1)C(=O)NCc1c(F)cc(O)cc1F` [compound 9, 2,2′,2″-(10-(2-((6-((4-((2-((1S,4R,Z)-9-amino-4-((2,6-difluoro-4-hydroxybenzyl)carbamoyl)-2,11,16-trioxo-1-phenyl-3,8,10,12,15-pentaazaoctadec-9-en-1-yl)isoindolin-4-yl)amino)-4-oxobutyl)amino)-6-oxohexyl)amino)-2-oxoethyl)-1,4,7,10-tetraazacyclododecane-1,4,7-triyl)triacetic acid]: under 10 nM; `CCC(=O)NCCNC(=O)/N=C(/N)NCCC[C@@H](NC(=O)[C@H](c1cccc(N(C)CCCNC(=O)CCCCCNC(=O)CN2CCN(CC(=O)O)CCN(CC(=O)O)CCN(CC(=O)O)CC2)c1)N1Cc2ccccc2C1)C(=O)NCc1ccc(O)cc1` [compound 11, 2,2′,2″-(10-(2-((6-((3-((3-((1S,4R,Z)-9-amino-4-((4-hydroxybenzyl)carbamoyl)-1-(isoindolin-2-yl)-2,11,16-trioxo-3,8,10,12,15-pentaazaoctadec-9-en-1-yl)phenyl)(methyl)amino)propyl)amino)-6-oxohexyl)amino)-2-oxoethyl)-1,4,7,10-tetraazacyclododecane-1,4,7-triyl)triacetic acid]: under 10 nM; `CCC(=O)NCCNC(=O)/N=C(/N)NCCC[C@@H](NC(=O)[C@H](c1cccc(OCCCNC(=O)CCCCCNC(=O)CN2CCN(CC(=O)O)CCN(CC(=O)O)CCN(CC(=O)O)CC2)c1)N1Cc2ccccc2C1)C(=O)NCc1ccc(O)cc1` [compound 12, 2,2′,2″-(10-(2-((6-((3-(3-((1S,4R,Z)-9-amino-4-((4-hydroxybenzyl)carbamoyl)-1-(isoindolin-2-yl)-2,11,16-trioxo-3,8,10,12,15-pentaazaoctadec-9-en-1-yl)phenoxy)propyl)amino)-6-oxohexyl)amino)-2-oxoethyl)-1,4,7,10-tetraazacyclododecane-1,4,7-triyl)triacetic acid]: under 10 nM. The value for `CCNC(=O)/N=C(/N)NCCC[C@@H](NC(=O)[C@H](c1cccc(NCCCNC(=O)[C@H](N)CCCCNC(=O)CN2CCN(CC(=O)O)CCN(CC(=O)O)CCN(CC(=O)O)CC2)c1)N1Cc2ccccc2C1)C(=O)NCc1c(F)cc(O)cc1F` [compound 13, 2,2′,2″-(10-(2-(((R)-5-amino-6-((3-((3-((11R,14S,Z)-6-amino-11-((2,6-difluoro-4-hydroxybenzyl)carbamoyl)-14-(isoindolin-2-yl)-4,13-dioxo-3,5,7,12-tetraazatetradec-5-en-14-yl)phenyl)amino)propyl)amino)-6-oxohexyl)amino)-2-oxoethyl)-1,4,7,10-tetraazacyclododecane-1,4,7-triyl)triacetic acid] was under 10 nM. For the compound `CCNC(=O)/N=C(/N)NCCC[C@@H](NC(=O)[C@H](c1cccc(NCCCNC(=O)CCOCCNC(=O)CN2CCN(CC(=O)O)CCN(CC(=O)O)CCN(CC(=O)O)CC2)c1)N1Cc2ccccc2C1)C(=O)NCc1c(F)cc(O)cc1F` [compound 14, 2,2′,2″-(10-(2-((2-(3-((3-((3-((11R,14S,Z)-6-amino-11-((2,6-difluoro-4-hydroxybenzyl)carbamoyl)-14-(isoindolin-2-yl)-4,13-dioxo-3,5,7,12-tetraazatetradec-5-en-14-yl)phenyl)amino)propyl)amino)-3-oxopropoxy)ethyl)amino)-2-oxoethyl)-1,4,7,10-tetraazacyclododecane-1,4,7-triyl)triacetic acid], the inhibition constant (Ki) was under 10 nM. Turning to `CCC(=O)NCCNC(=O)/N=C(/N)NCCC[C@@H](NC(=O)[C@H](c1ccc(OCCCNC(=O)CCOCCNC(=O)CN2CCN(CC(=O)O)CCN(CC(=O)O)CCN(CC(=O)O)CC2)cc1)N1Cc2ccccc2C1)C(=O)NCc1ccc(O)cc1` [compound 15, 2,2′,2″-(10-(2-((2-(3-((3-(4-((1S,4R,Z)-9-amino-4-((4-hydroxybenzyl)carbamoyl)-1-(isoindolin-2-yl)-2,11,16-trioxo-3,8,10,12,15-pentaazaoctadec-9-en-1-yl)phenoxy)propyl)amino)-3-oxopropoxy)ethyl)amino)-2-oxoethyl)-1,4,7,10-tetraazacyclododecane-1,4,7-triyl)triacetic acid], the Ki was under 10 nM. Next, `CCC(=O)NCCNC(=O)/N=C(/N)NCCC[C@@H](NC(=O)[C@H](c1ccc(OCCCNc2c(NCCNC(=O)CN3CCN(CC(=O)O)CCN(CC(=O)O)CCN(CC(=O)O)CC3)c(=O)c2=O)cc1)N1Cc2ccccc2C1)C(=O)NCc1ccc(O)cc1` [compound 16, 2,2′,2″-(10-(2-((2-((2-((3-(4-((1S,4R,Z)-9-amino-4-((4-hydroxybenzyl)carbamoyl)-1-(isoindolin-2-yl)-2,11,16-trioxo-3,8,10,12,15-pentaazaoctadec-9-en-1-yl)phenoxy)propyl)amino)-3,4-dioxocyclobut-1-en-1-yl)amino)ethyl)amino)-2-oxoethyl)-1,4,7,10-tetraazacyclododecane-1,4,7-triyl)triacetic acid]: under 10 nM. On to `CCC(=O)NCCNC(=O)/N=C(/N)NCCC[C@@H](NC(=O)[C@H](c1ccc(OCCCNC(=O)CCOCCNC(=O)c2ccc(CNC(=O)CN3CCN(CC(=O)O)CCN(CC(=O)O)CCN(CC(=O)O)CC3)cc2)cc1)N1Cc2ccccc2C1)C(=O)NCc1ccc(O)cc1` [compound 17, 2,2′,2″-(10-(2-((4-((2-(3-((3-(4-((1S,4R,Z)-9-amino-4-((4-hydroxybenzyl)carbamoyl)-1-(isoindolin-2-yl)-2,11,16-trioxo-3,8,10,12,15-pentaazaoctadec-9-en-1-yl)phenoxy)propyl)amino)-3-oxopropoxy)ethyl)carbamoyl)benzyl)amino)-2-oxoethyl)-1,4,7,10-tetraazacyclododecane-1,4,7-triyl)triacetic acid], for which the Ki was under 10 nM. With `CCC(=O)NCCNC(=O)/N=C(/N)NCCC[C@@H](NC(=O)[C@H](c1ccc(OCCCNC(=O)[C@H]2CC[C@H](CNC(=O)CN3CCN(CC(=O)O)CCN(CC(=O)O)CCN(CC(=O)O)CC3)CC2)cc1)N1Cc2ccccc2C1)C(=O)NCc1ccc(O)cc1` [compound 18, 2,2′,2″-(10-(2-((((1S,4r)-4-((3-(4-((1S,4R,Z)-9-amino-4-((4-hydroxybenzyl)carbamoyl)-1-(isoindolin-2-yl)-2,11,16-trioxo-3,8,10,12,15-pentaazaoctadec-9-en-1-yl)phenoxy)propyl)carbamoyl)cyclohexyl)methyl)amino)-2-oxoethyl)-1,4,7,10-tetraazacyclododecane-1,4,7-triyl)triacetic acid], the Ki is under 10 nM.

For `CCC(=O)NCCNC(=O)/N=C(/N)NCCC[C@@H](NC(=O)[C@H](c1cccc(NCCCNC(=O)CCCCCNC(=O)CN2CCN(CC(=O)O)CCN(CC(=O)O)CCN(CC(=O)O)CC2)c1)N1Cc2ccccc2C1)C(=O)NCc1ccc(O)cc1` [compound 19, 2,2′,2″-(10-(2-((6-((3-((3-((1S,4R,Z)-9-amino-4-((4-hydroxybenzyl)carbamoyl)-1-(isoindolin-2-yl)-2,11,16-trioxo-3,8,10,12,15-pentaazaoctadec-9-en-1-yl)phenyl)amino)propyl)amino)-6-oxohexyl)amino)-2-oxoethyl)-1,4,7,10-tetraazacyclododecane-1,4,7-triyl)triacetic acid], the inhibition constant (Ki) was under 10 nM. `CCC(=O)NCCNC(=O)/N=C(/N)NCCC[C@@H](NC(=O)[C@H](c1cccc(NCCCNC(=O)CCOCCNC(=O)CN2CCN(CC(=O)O)CCN(CC(=O)O)CCN(CC(=O)O)CC2)c1)N1Cc2ccccc2C1)C(=O)NCc1ccc(O)cc1` [compound 20, 2,2′,2″-(10-(2-((2-(3-((3-((3-((1S,4R,Z)-9-amino-4-((4-hydroxybenzyl)carbamoyl)-1-(isoindolin-2-yl)-2,11,16-trioxo-3,8,10,12,15-pentaazaoctadec-9-en-1-yl)phenyl)amino)propyl)amino)-3-oxopropoxy)ethyl)amino)-2-oxoethyl)-1,4,7,10-tetraazacyclododecane-1,4,7-triyl)triacetic acid]: the inhibitory constant (Ki) was under 10 nM.

As for `CCC(=O)NCCNC(=O)/N=C(/N)NCCC[C@@H](NC(=O)[C@H](c1cccc(NCCCNC(=O)CN(C)C(=O)CN(C)C(=O)CN(C)C(=O)CN2CCN(CC(=O)O)CCN(CC(=O)O)CCN(CC(=O)O)CC2)c1)N1Cc2ccccc2C1)C(=O)NCc1ccc(O)cc1` [compound 21, 2,2′,2″-(10-(15-((3-((1S,4R,Z)-9-amino-4-((4-hydroxybenzyl)carbamoyl)-1-(isoindolin-2-yl)-2,11,16-trioxo-3,8,10,12,15-pentaazaoctadec-9-en-1-yl)phenyl)amino)-3,6,9-trimethyl-2,5,8,11-tetraoxo-3,6,9,12-tetraazapentadecyl)-1,4,7,10-tetraazacyclododecane-1,4,7-triyl)triacetic acid] ({DOTA}-[Sar][Sar][Sar][X2][dArg(Nω-CONH(CH2)2NHCOEt)]-{NH(4-OH-benzyl)}), the inhibition constant (Ki) is under 10 nM.

On to `CCC(=O)NCCNC(=O)/N=C(/N)NCCC[C@@H](NC(=O)[C@H](c1cccc(NCCCNC(=O)NOCCNC(=O)CN2CCN(CC(=O)O)CCN(CC(=O)O)CCN(CC(=O)O)CC2)c1)N1Cc2ccccc2C1)C(=O)NCc1ccc(O)cc1` [compound 22, 2,2′,2″-(10-(12-((3-((1S,4R,Z)-9-amino-4-((4-hydroxybenzyl)carbamoyl)-1-(isoindolin-2-yl)-2,11,16-trioxo-3,8,10,12,15-pentaazaoctadec-9-en-1-yl)phenyl)amino)-2,8-dioxo-6-oxa-3,7,9-triazadodecyl)-1,4,7,10-tetraazacyclododecane-1,4,7-triyl)triacetic acid], for which the Ki was under 10 nM.
